Results: ChEMBL document CHEMBL1201862, “PubChem BioAssay data set” (2004)
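The compound was tested at five concentrations on cells cultured in 96-well plates, with a 48-hour exposure period. Abbreviation: GI50, concentration required for 50% inhibition of growth.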 The source made the active and inactive calls. No stated cut-off is given here; in the data, active = GI50 up to about 1.1 µM and inactive = higher.

How the values were obtained:
Assay in all cases: NCI tumour cell line growth inhibition, 48 h
NCI-H460 = system: NCI-H460
ACHN = system: ACHN
KM-20L2 = system: KM-20L2
UACC-257 = system: UACC-257
HCT-116 = system: HCT-116
DMS-114 = system: DMS-114
Malme-3M = system: Malme-3M
LXFL 529 = system: LXFL 529
OVCAR-4 = system: OVCAR-4
M14 = system: M14
CCRF-CEM = system: CCRF-CEM
SK-MEL-28 = system: SK-MEL-28
TK-10 = system: TK-10
HCC 2998 = system: HCC 2998
U-251 = system: U-251
SN12C = system: SN12C
NCI-H23 = system: NCI-H23
COLO 205 = system: COLO 205
LOX IMVI = system: LOX IMVI
A549 = system: A549
HOP-62 = system: HOP-62
SF-539 = system: SF-539
IGROV-1 = system: IGROV-1
OVCAR-3 = system: OVCAR-3
HCT-15 = system: HCT-15
KM12 = system: KM12
786-0 = system: 786-0
OVCAR-8 = system: OVCAR-8
EKVX = system: EKVX
SK-MEL-5 = system: SK-MEL-5
SF-268 = system: SF-268
SK-OV-3 = system: SK-OV-3
NCI-H522 = system: NCI-H522
SK-MEL-2 = system: SK-MEL-2
OVCAR-5 = system: OVCAR-5
UO-31 = system: UO-31
XF498 = system: XF498
SW-620 = system: SW-620
M19-MEL = system: M19-MEL
SNB-19 = system: SNB-19
MOLT-4 = system: MOLT-4
SR = system: SR
K562 = system: K562
HOP-92 = system: HOP-92
HL-60 = system: HL-60
UACC-62 = system: UACC-62
DMS-273 = system: DMS-273
CAKI-1 = system: CAKI-1
RPMI-8226 = system: RPMI-8226
HT-29 = system: HT-29
SNB-78 = system: SNB-78
NCI-H226 = system: NCI-H226
DLD-1 = system: DLD-1
SF-295 = system: SF-295
A498 = system: A498
SNB-75 = system: SNB-75

Measured: GI50

CC1(c2ccccc2)CC12C(=O)NC(=O)NC2=O (stereo unspecified)
inactive: NCI-H460 > 10 µM | ACHN > 100 µM | KM-20L2 > 100 µM | UACC-257 > 100 µM | HCT-116 > 100 µM | DMS-114 > 100 µM | Malme-3M > 100 µM | LXFL 529 > 100 µM | OVCAR-4 > 100 µM | M14 > 100 µM | CCRF-CEM > 100 µM | SK-MEL-28 > 100 µM | TK-10 > 100 µM | HCC 2998 > 100 µM | U-251 > 100 µM | SN12C > 100 µM | NCI-H23 > 100 µM | COLO 205 > 100 µM | LOX IMVI > 100 µM | A549 > 100 µM | HOP-62 > 100 µM | SF-539 > 100 µM | IGROV-1 > 100 µM | OVCAR-3 > 100 µM | KM12 > 100 µM | 786-0 > 100 µM | OVCAR-8 > 100 µM | EKVX > 100 µM | SK-MEL-5 > 100 µM | SF-268 > 100 µM | SK-OV-3 > 100 µM | NCI-H522 > 100 µM | SK-MEL-2 > 100 µM | OVCAR-5 > 100 µM | UO-31 > 100 µM | XF498 > 100 µM | SW-620 > 100 µM | M19-MEL > 100 µM | SNB-19 > 100 µM | MOLT-4 > 100 µM | SR > 100 µM | K562 > 100 µM | HOP-92 > 100 µM | HL-60 > 100 µM | UACC-62 > 100 µM | DMS-273 > 100 µM | CAKI-1 > 100 µM | RPMI-8226 > 100 µM | HT-29 > 100 µM | SNB-78 > 100 µM | NCI-H226 > 100 µM | DLD-1 > 100 µM | SF-295 > 100 µM
> 100 µM: HCT-15

CCn1c(CSc2nc(-c3ccccc3)c(-c3ccccc3)[nH]2)n[nH]c1=S
> 100 µM: HCT-15
inactive: NCI-H460 > 100 µM | ACHN > 100 µM | KM-20L2 > 100 µM | UACC-257 > 100 µM | HCT-116 > 100 µM | DMS-114 > 100 µM | Malme-3M > 100 µM | LXFL 529 > 100 µM | OVCAR-4 > 100 µM | M14 > 100 µM | CCRF-CEM > 100 µM | SK-MEL-28 > 100 µM | TK-10 > 100 µM | A498 > 100 µM | U-251 > 100 µM | SN12C > 100 µM | NCI-H23 > 100 µM | COLO 205 > 100 µM | LOX IMVI > 100 µM | A549 > 100 µM | HOP-62 > 100 µM | SF-539 > 100 µM | IGROV-1 > 100 µM | OVCAR-3 > 100 µM | KM12 51.4 µM | SNB-75 > 100 µM | 786-0 > 100 µM | OVCAR-8 > 100 µM | EKVX > 100 µM | SK-MEL-5 > 100 µM | SF-268 > 100 µM | SK-OV-3 > 100 µM | NCI-H522 > 100 µM | SK-MEL-2 > 100 µM | OVCAR-5 > 100 µM | UO-31 > 100 µM | XF498 > 100 µM | M19-MEL > 100 µM | SNB-19 > 100 µM | MOLT-4 > 100 µM | SR > 100 µM | HOP-92 > 100 µM | HL-60 > 100 µM | DMS-273 > 100 µM | RPMI-8226 > 100 µM | HT-29 > 100 µM | SNB-78 > 100 µM | NCI-H226 > 100 µM | DLD-1 > 100 µM | SF-295 > 100 µM
active: HCC 2998 0.0243 µM
